The test has as its target human A2A receptor (A2AR) (Homo sapiens (Human), UniProt P29274). Briefly: Luciferase reporter assay (HEK293-A2AR-luc2p/CRE/Hygro cells). It counts as cell-based. Particulars: 3 nM CGS21680, 5 h incubation. Put shortly:
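HEK293 cells stably expressing human A2AR and a CRE-luc2P reporter were seeded in 1% FBS with 1 U/mL adenosine deaminase. After 18 h they were stimulated 5 h with 3 nM CGS21680 plus compound (0.1–10000 nM), then luciferase luminescence was read. IC50 was taken from inhibition curves, with CGS21680 alone set as 100%.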
For orientation: Reporter assays use an easily measured gene product as a stand-in for the process of interest.

For orientation: IC50 means the concentration at which inhibition is half-maximal. High values mean weaker potency, low ones greater potency.

human A2A receptor (A2AR), sequence (P29274 whole entry): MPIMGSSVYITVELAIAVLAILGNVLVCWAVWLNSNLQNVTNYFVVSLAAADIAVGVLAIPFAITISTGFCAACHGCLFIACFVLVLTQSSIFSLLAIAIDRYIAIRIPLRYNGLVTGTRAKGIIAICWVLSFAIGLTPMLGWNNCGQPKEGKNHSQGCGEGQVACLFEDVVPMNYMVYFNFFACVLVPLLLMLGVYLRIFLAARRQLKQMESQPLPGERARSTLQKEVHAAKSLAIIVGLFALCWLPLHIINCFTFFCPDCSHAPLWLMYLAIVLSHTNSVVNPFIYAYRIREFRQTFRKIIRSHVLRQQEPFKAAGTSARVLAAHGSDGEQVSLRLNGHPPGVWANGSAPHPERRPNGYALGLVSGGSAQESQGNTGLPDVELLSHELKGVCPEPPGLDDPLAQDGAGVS

`Nc1nc2c(cnn2C(C(=O)NCc2ccccc2F)c2ccccc2)c2nc(-c3ccco3)nn12` (centres unmarked) [Example 7, 2-(5-amino-2-(furan-2-yl)-7H-pyrazolo[4,3-e][1,2,4]triazolo[1,5-c]pyrimidin-7-yl)-N-(2-fluorobenzyl)-2-phenylacetamide] returned an IC50 of 1.5 nM.

Consider `COc1cccnc1CNC(=O)[C@@](C)(c1ccccc1)n1ncc2c1nc(N)n1nc(-c3ccco3)nc21` [Example 115B, (R)-2-(5-amino-2-(furan-2-yl)-7H-pyrazolo[4,3-e][1,2,4]triazolo[1,5-c]pyrimidin-7-yl)-N-((3-methoxypyridin-2-yl)methyl)-2-phenylpropanamide], for which the IC50 was found to be 3.3 nM.

As to `CCNC(=O)C(c1ccccc1)n1ncc2c1nc(N)n1nc(-c3ccco3)nc21` (centres unmarked) [Example 5, 2-(5-amino-2-(furan-2-yl)-7H-pyrazolo[4,3-e][1,2,4]triazolo[1,5-c]pyrimidin-7-yl)-N-ethyl-2-phenylacetamide], half-maximal inhibition (IC50) required 7 nM.

Molecule `CC(C(=O)NC1CCC(=O)CC1)(c1ccccc1)n1ncc2c1nc(N)n1nc(-c3ccco3)nc21` (centres unmarked) [Example 128, 2-(5-amino-2-(furan-2-yl)-7H-pyrazolo[4,3-e][1,2,4]triazolo[1,5-c]pyrimidin-7-yl)-N-(4-oxocyclohexyl)-2-phenylpropanamide] gave an IC50 of 12.8 nM.

Molecule `Cc1cccnc1CNC(=O)C(C)(c1ccccc1)n1ncc2c1nc(N)n1nc(-c3ccco3)nc21` (centres unmarked) [Example 111, 2-(5-amino-2-(furan-2-yl)-7H-pyrazolo[4,3-e][1,2,4]triazolo[1,5-c]pyrimidin-7-yl)-N-((3-methylpyridin-2-yl)methyl)-2-phenylpropanamide] registered an IC50 of 0.6 nM.

Molecule `CC(C(=O)N[C@H]1CCC[C@H]1O)(c1ccccc1)n1ncc2c1nc(N)n1nc(-c3ccco3)nc21` (stereo partly drawn) [Example 47, 2-(5-amino-2-(furan-2-yl)-7H-pyrazolo[4,3-e][1,2,4]triazolo[1,5-c]pyrimidin-7-yl)-N-((1S,2R)-2-hydroxycyclopentyl)-2-phenylpropanamide] showed an IC50 of 12.8 nM.

With `COc1ccc(C(C)(C(=O)NCC2(O)COC2)n2ncc3c2nc(N)n2nc(-c4ccco4)nc32)cc1` (centres unmarked) [Example 86, 2-(5-amino-2-(furan-2-yl)-7H-pyrazolo[4,3-e][1,2,4]triazolo[1,5-c]pyrimidin-7-yl)-N-((3-hydroxyoxetan-3-yl)methyl)-2-(4-methoxyphenyl)propanamide], the half-maximal inhibitory concentration (IC50) worked out at 85.9 nM.

Turning to `Nc1nc2c(cnn2C(C(=O)N[C@H]2CCCC[C@H]2O)c2ccccc2)c2nc(-c3ccco3)nn12` (stereo partly drawn) [Example 91, 2-(5-amino-2-(furan-2-yl)-7H-pyrazolo[4,3-e][1,2,4]triazolo[1,5-c]pyrimidin-7-yl)-N-((1S,2R)-2-hydroxycyclohexyl)-2-phenylacetamide], the IC50 came to 15.1 nM.

In the case of `Cc1ccc(CNC(=O)[C@@](C)(c2ccccc2)n2ncc3c2nc(N)n2nc(-c4ccco4)nc32)nc1` [Example 109B, (R)-2-(5-amino-2-(furan-2-yl)-7H-pyrazolo[4,3-e][1,2,4]triazolo[1,5-c]pyrimidin-7-yl)-N-((5-methylpyridin-2-yl)methyl)-2-phenylpropanamide], the midpoint of inhibition, the IC50, lay at 0.7 nM.

As to `C[C@](C(=O)NC1CCC(=O)CC1)(c1ccccc1)n1ncc2c1nc(N)n1nc(-c3ccco3)nc21` [Example 128B, (R)-2-(5-amino-2-(furan-2-yl)-7H-pyrazolo[4,3-e][1,2,4]triazolo[1,5-c]pyrimidin-7-yl)-N-(4-oxocyclohexyl)-2-phenylpropanamide], the IC50 turned out to be 7.6 nM.

In turn, `CC(C(=O)N[C@H]1CC[C@](C)(O)CC1)(c1ccccc1)n1ncc2c1nc(N)n1nc(-c3ccco3)nc21` (stereo partly drawn) [Example 69, 2-(5-amino-2-(furan-2-yl)-7H-pyrazolo[4,3-e][1,2,4]triazolo[1,5-c]pyrimidin-7-yl)-(cis)-N-(4-hydroxy-4-methylcyclohexyl)-2-phenylpropanamide] displayed a half-maximal inhibitory concentration (IC50) of 10.5 nM.

With `CC(C(=O)N[C@@H]1CC[C@@H](O)C1)(c1ccccc1)n1ncc2c1nc(N)n1nc(-c3ccco3)nc21` (stereo partly drawn) [Example 94, 2-(5-amino-2-(furan-2-yl)-7H-pyrazolo[4,3-e][1,2,4]triazolo[1,5-c]pyrimidin-7-yl)-N-((1R,3R)-3-hydroxycyclopentyl)-2-phenylpropanamide], the half-maximal inhibitory concentration (IC50) was determined as 11.2 nM.

The molecule `CC(C(=O)N[C@H]1CCCC[C@H]1O)(c1ccccc1)n1ncc2c1nc(N)n1nc(-c3ccco3)nc21` (stereo partly drawn) [Example 56, 2-(5-amino-2-(furan-2-yl)-7H-pyrazolo[4,3-e][1,2,4]triazolo[1,5-c]pyrimidin-7-yl)-N-((1S,2R)-2-hydroxycyclohexyl)-2-phenylpropanamide] displayed an IC50 of 10.9 nM.

With `CCCC(C(=O)NCc1ccccc1OC)n1ncc2c1nc(N)n1nc(-c3ccco3)nc21` (centres unmarked) [Example 21, 2-(5-amino-2-(furan-2-yl)-7H-pyrazolo[4,3-e][1,2,4]triazolo[1,5-c]pyrimidin-7-yl)-N-(2-methoxybenzyl)pentanamide], the concentration for half-maximal inhibition (IC50) was 15.3 nM.

In turn, `C[C@@](C(=O)NCC1(O)COC1)(c1ccccc1)n1ncc2c1nc(N)n1nc(-c3ccco3)nc21` [Example 31A] registered an IC50 of 28 nM.

For `CC(C(=O)N[C@H]1COC[C@@H]1O)(c1ccccc1)n1ncc2c1nc(N)n1nc(-c3ccco3)nc21` (stereo partly drawn) [Example 106, 2-(5-amino-2-(furan-2-yl)-7H-pyrazolo[4,3-e][1,2,4]triazolo[1,5-c]pyrimidin-7-yl)-N-((3S,4R)-4-hydroxytetrahydrofuran-3-yl)-2-phenylpropanamide], 50.9 nM corresponded to half-maximal inhibition (IC50).

As to `CC(C(=O)NCC1(O)CCC1)(c1ccccc1)n1ncc2c1nc(N)n1nc(-c3ccco3)nc21` (centres unmarked) [Example 71, 2-(5-amino-2-(furan-2-yl)-7H-pyrazolo[4,3-e][1,2,4]triazolo[1,5-c]pyrimidin-7-yl)-N-((1-hydroxycyclobutyl)methyl)-2-phenylpropanamide], the IC50 came out at 3.8 nM.

Regarding `C[C@H](NC(=O)C(c1ccccc1)n1ncc2c1nc(N)n1nc(-c3ccco3)nc21)c1ccccc1` (stereo partly drawn) [Example 9, 2-(5-amino-2-(furan-2-yl)-7H-pyrazolo[4,3-e][1,2,4]triazolo[1,5-c]pyrimidin-7-yl)-2-phenyl-N—((S)-1-phenylethy)acetamide], the midpoint of inhibition, the IC50, lay at 31.9 nM.

Molecule `CC(C(=O)Nc1ccccc1)(c1ccccc1)n1ncc2c1nc(N)n1nc(-c3ccco3)nc21` (centres unmarked) [Example 34, 2-(5-amino-2-(furan-2-yl)-7H-pyrazolo[4,3-e][1,2,4]triazolo[1,5-c]pyrimidin-7-yl)-N,2-diphenylpropanamide] gave a 50% inhibitory concentration (IC50) of 9.5 nM.

Take `Nc1nc2c(cnn2C(C(=O)NCCc2ccccc2)c2ccccc2)c2nc(-c3ccco3)nn12` (centres unmarked) [Example 17, 2-(5-amino-2-(furan-2-yl)-7H-pyrazolo[4,3-e][1,2,4]triazolo[1,5-c]pyrimidin-7-yl)-N-phenethyl-2-phenylacetamide]: the IC50 came to 3 nM.

The molecule `COc1ccc(CNC(=O)C(c2ccccc2)n2ncc3c2nc(N)n2nc(-c4ccco4)nc32)cc1` (centres unmarked) [Example 28, 2-(5-amino-2-(furan-2-yl)-7H-pyrazolo[4,3-e][1,2,4]triazolo[1,5-c]pyrimidin-7-yl)-N-(4-methoxybenzyl)-2-phenylacetamide] came in with a 50% inhibitory concentration (IC50) of 1.6 nM. This IC50 lies about 1.9-fold lower than the previous one.

`Cc1ccnc(CNC(=O)C(C)(c2ccccc2)n2ncc3c2nc(N)n2nc(-c4ccco4)nc32)c1` (centres unmarked) [Example 110, 2-(5-amino-2-(furan-2-yl)-7H-pyrazolo[4,3-e][1,2,4]triazolo[1,5-c]pyrimidin-7-yl)-N-((4-methylpyridin-2-yl)methyl)-2-phenylpropanamide] came in with a half-inhibitory concentration (IC50) of 2.4 nM. This IC50 and that of the molecule before are within 1.5-fold of each other.

The molecule `Nc1nc2c(cnn2C(C(=O)N[C@@H]2CCOc3ccccc32)c2ccccc2)c2nc(-c3ccco3)nn12` (stereo partly drawn) [Example 15, 2-(5-amino-2-(furan-2-yl)-7H-pyrazolo[4,3-e][1,2,4]triazolo[1,5-c]pyrimidin-7-yl)-N—((R)-chroman-4-yl)-2-phenylacetamide] gave an IC50 of 7.9 nM. Compared with the last molecule, the IC50 is about 3.3-fold higher.

For `CC(C(=O)N[C@H]1C[C@@H](O)C1)(c1ccccc1)n1ncc2c1nc(N)n1nc(-c3ccco3)nc21` (some centres unmarked) [Example 104, 2-(5-amino-2-(furan-2-yl)-7H-pyrazolo[4,3-e][1,2,4]triazolo[1,5-c]pyrimidin-7-yl)-N-((1s,3s)-3-hydroxycyclobutyl)-2-phenylpropanamide], the IC50 is 18.2 nM.

In turn, `CC(C(=O)NC[C@H]1CCCO1)(c1ccccc1)n1ncc2c1nc(N)n1nc(-c3ccco3)nc21` (stereo partly drawn) [Example 50, 2-(5-amino-2-(furan-2-yl)-7H-pyrazolo[4,3-e][1,2,4]triazolo[1,5-c]pyrimidin-7-yl)-2-phenyl-N—(((R)-tetrahydrofuran-2-yl)methyl)propanamide] had an IC50 of 5.3 nM.

`Cc1cccc(CNC(=O)C(c2ccccc2)n2ncc3c2nc(N)n2nc(-c4ccco4)nc32)c1` (centres unmarked) [Example 23, 2-(5-amino-2-(furan-2-yl)-7H-pyrazolo[4,3-e][1,2,4]triazolo[1,5-c]pyrimidin-7-yl)-N-(3-methylbenzyl)-2-phenylacetamide] gave an IC50 of 1.9 nM.

In the case of `Nc1nc2c(cnn2C(C(=O)NCc2ccc(C(F)(F)F)cc2)c2ccccc2)c2nc(-c3ccco3)nn12` (centres unmarked) [Example 29, 2-(5-amino-2-(furan-2-yl)-7H-pyrazolo[4,3-e][1,2,4]triazolo[1,5-c]pyrimidin-7-yl)-2-phenyl-N-(4-(trifluoromethyl)benzyl)acetamide], it took 1.3 nM to reach half-maximal inhibition (IC50).

In turn, `CC1(O)CCC(NC(=O)[C@@](C)(c2ccccc2)n2ncc3c2nc(N)n2nc(-c4ccco4)nc32)CC1` (stereo in doubt) [Example 33B, (R)-2-(5-amino-2-(furan-2-yl)-7H-pyrazolo[4,3-e][1,2,4]triazolo[1,5-c]pyrimidin-7-yl)-(trans)-N-(4-hydroxy-4-methylcyclohexyl)-2-phenylpropanamide] came in with an IC50 of 2.3 nM.

`CC(C(=O)NCC1(O)COC1)(c1ccccc1)n1ncc2c1nc(N)n1nc(-c3ccco3)nc21` (centres unmarked) [Example 31, 2-(5-amino-2-(furan-2-yl)-7H-pyrazolo[4,3-e][1,2,4]triazolo[1,5-c]pyrimidin-7-yl)-N-((3-hydroxyoxetan-3-yl)methyl)-2-phenylpropanamide]: the IC50 came to 5.8 nM.

Source of the values: patent US11472811B2, “Pyrazolotriazolopyrimidine derivatives as A2A receptor antagonist” (BEIGENE, LTD., priority 2018, dated 2022).
